Tested on: E. coli, S. aureus, P. aeruginosa, C. albicans and A. Brasiliensis
Experiment: Challenge test, statements on all tested microorganisms together
Format: cell-based
Conditions: non-preserved cream
Procedure: The various lotion or cleansing formulae were contaminated by suitable microorganisms (bacteria and yeast), as described below. The so-prepared samples were incubated as described below. Using serial dilutions and plate counts, aliquots were taken during the incubation period for determining microorganism count. Tested Microorganisms: E. coli (ATCC 8739); S. aureus (ATCC 6538); P. aeruginosa (ATCC 9027); C. albicans (ATCC 10231) and A. Brasiliensis (ATCC 16404)). Bacteria, yeast, and mold suspensions were prepared according to ISO 11930; TSA culture medium for the bacteria was obtained from Hylab (Cat. No PD-087/A); PDA culture medium for A. brasiliensis was obtained from Hylab (Cat. No PD-043); SDA culture medium for C. albicans was obtained from Hylab (Cat. No PD-044); 0.1% peptone was prepared by mixing 1 g/l Peptone in sterile water. The test was performed according ISO 11930. Each sample was contaminated with microorganisms to obtain the range of 10^5-10^6 cfulml. The inoculated formulation was mixed thoroughly to ensure a homogeneous distribution of the inoculum. Samples were stored at 25° C. Each sample was sampled in intervals of 2, 7, 14, 21 and 28 days, according to the following procedure: 100 μl of the inoculated formulation was streaked on suitable agar medium. The plates were incubated at 37° C. for bacteria and 25° C. for yeast and mold. […]

## CCCCCCCC(=O)OCC(O)CO (stereo not shown) [glyceryl caprylate]
  Antimicrobial activity against the tested microorganisms, in words: improved the antimicrobial activity of the tested formulations

Reference: patent US20190150455A1, “COMPOSITIONS OF SAPONINS AND PLANT EXTRACTS” (Y&B MOTHER'S CHOICE LTD., priority 2016, published 2019)
